Assay results reported in ChEMBL document CHEMBL1201862, “PubChem BioAssay data set” (2004).
Each block holds one molecule with its values, some of them ahead of it. The source made the active and inactive calls.

Columns and labels:
[1] = biological target: T1, Sentrin-specific protease 8 (Homo sapiens, UniProt Q96LD8); format: functional;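 also: luminescence read-out of SENP8 inhibition, dose-response confirmation following an ultra-high-throughput screen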
T1 sequence (Q96LD8 whole entry): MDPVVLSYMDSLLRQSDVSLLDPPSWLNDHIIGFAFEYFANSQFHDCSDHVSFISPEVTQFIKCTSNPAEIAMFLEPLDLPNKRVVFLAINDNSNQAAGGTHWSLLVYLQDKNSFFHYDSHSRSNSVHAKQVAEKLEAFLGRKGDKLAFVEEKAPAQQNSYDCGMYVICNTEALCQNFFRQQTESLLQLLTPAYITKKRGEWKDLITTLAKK

[2] = biological target: T2, Sentrin-specific protease 6 (Homo sapiens, UniProt Q9GZR1); format: functional;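 also: Luminescence-based dose-response confirmatory assay of SENP6 inhibition, following up an ultra-high-throughput screen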
T2 sequence (Q9GZR1 whole entry): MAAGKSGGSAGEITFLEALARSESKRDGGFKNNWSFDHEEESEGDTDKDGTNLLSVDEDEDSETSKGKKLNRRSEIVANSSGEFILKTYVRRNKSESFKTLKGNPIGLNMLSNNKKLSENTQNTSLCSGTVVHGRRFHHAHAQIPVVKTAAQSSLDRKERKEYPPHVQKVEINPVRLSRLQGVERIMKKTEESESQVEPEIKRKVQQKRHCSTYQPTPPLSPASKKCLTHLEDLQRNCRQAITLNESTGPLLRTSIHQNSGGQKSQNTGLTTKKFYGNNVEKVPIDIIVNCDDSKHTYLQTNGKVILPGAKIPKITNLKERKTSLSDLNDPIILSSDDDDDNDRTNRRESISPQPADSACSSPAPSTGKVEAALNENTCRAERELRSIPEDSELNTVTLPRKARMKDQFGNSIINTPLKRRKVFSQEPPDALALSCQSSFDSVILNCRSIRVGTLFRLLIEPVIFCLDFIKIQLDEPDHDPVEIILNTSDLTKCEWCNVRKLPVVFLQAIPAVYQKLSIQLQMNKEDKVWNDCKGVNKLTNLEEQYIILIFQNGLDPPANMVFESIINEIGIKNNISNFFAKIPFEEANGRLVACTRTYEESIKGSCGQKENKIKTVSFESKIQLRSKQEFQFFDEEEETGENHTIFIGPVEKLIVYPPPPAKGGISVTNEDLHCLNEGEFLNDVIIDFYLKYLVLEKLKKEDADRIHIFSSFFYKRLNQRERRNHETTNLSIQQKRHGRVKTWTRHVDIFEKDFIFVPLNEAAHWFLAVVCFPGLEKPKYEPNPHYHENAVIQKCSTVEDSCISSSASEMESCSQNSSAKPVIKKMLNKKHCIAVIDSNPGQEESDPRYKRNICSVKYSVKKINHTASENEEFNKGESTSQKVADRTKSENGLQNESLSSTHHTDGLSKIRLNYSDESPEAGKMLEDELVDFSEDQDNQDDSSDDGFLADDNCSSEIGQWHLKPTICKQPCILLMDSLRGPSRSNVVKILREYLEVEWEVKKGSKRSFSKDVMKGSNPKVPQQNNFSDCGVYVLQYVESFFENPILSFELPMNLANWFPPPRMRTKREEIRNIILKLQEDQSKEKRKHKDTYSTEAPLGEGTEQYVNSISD

[3] = test system: Streptococcus sp. 'group A'; test: growth inhibition of control SK(-) GAS strain, dose response, counter-screen for streptokinase expression inhibitor project, luminescence, kanamycin, BacTiterGlo, confirmation (AID 1900); format: functional, organism-based
INS1 = test: beta cell apoptosis inhibitors, cytokine rescue, dose response, luminescence, retest (AID 449756); format: functional, cell-based; conditions: Rattus norvegicus;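 also: cell death triggered by IL-1 beta plus TNF-alpha plus IFN-gamma mixture; protective hits raise ATP signal compared with cytokine alone wells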
[4] = biological target: Cyclin-dependent kinase 9 (Homo sapiens, UniProt P50750); format: functional;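 also: value from the CDK9 entry of a kinome-spanning kinase panel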
Activin receptor type-1 = Activin receptor type-1 (Homo sapiens, UniProt Q04771); test: Navigating the Kinome. Panel member name: ACVR1; format: functional
[5] = biological target: Tyrosine-protein kinase Fyn (Homo sapiens, UniProt P06241); format: functional
[6] = biological target: Dual specificity protein kinase CLK4 (Homo sapiens, UniProt Q9HAZ1); format: functional
[7] = biological target: Dual specificity tyrosine-phosphorylation-regulated kinase 1B (Homo sapiens, UniProt Q9Y463); test: Navigating the Kinome. Panel member name: DYRK1B; format: functional
[8] = biological target: Leucine-rich repeat serine/threonine-protein kinase 2 (Homo sapiens, UniProt Q5S007); format: functional;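 also: value from a broad kinome-wide panel profiling study in which LRRK2 was one of the kinases tested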
[9] = biological target: Platelet-derived growth factor receptor alpha (Homo sapiens, UniProt P16234); test: Navigating the Kinome. Panel member name: PDGFRA; format: functional
Activated CDC42 kinase 1 = Activated CDC42 kinase 1 (Homo sapiens, UniProt Q07912); test: Navigating the Kinome. Panel member name: ACK1; format: functional
[10] = biological target: Cyclin-dependent kinase 7 (Homo sapiens, UniProt P50613); format: functional;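 also: value comes from a kinome-wide kinase profiling panel in which CDK7 is one member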
[11] = biological target: Dual specificity mitogen-activated protein kinase kinase 1 (Homo sapiens, UniProt Q02750); test: Navigating the Kinome. Panel member name: MAP2K1; format: functional
[12] = biological target: cAMP-dependent protein kinase catalytic subunit alpha (Homo sapiens, UniProt P17612); format: functional
[13] = biological target: Serine/threonine-protein kinase Chk1 (Homo sapiens, UniProt O14757); format: functional;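 also: measured as one member of a kinome-wide kinase profiling panel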
[14] = biological target: Vascular endothelial growth factor receptor 2 (Homo sapiens, UniProt P35968); format: functional
[15] = biological target: Mitogen-activated protein kinase 9 (Homo sapiens, UniProt P45984); format: functional;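 also: value from a kinome panel profiling assay, MAPK9 panel entry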
[16] = biological target: Mitogen-activated protein kinase kinase kinase kinase 4 (Homo sapiens, UniProt O95819); format: functional
[17] = biological target: Death-associated protein kinase 3 (Homo sapiens, UniProt O43293); format: functional;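 also: measured as one member of a kinome-wide profiling panel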
[18] = biological target: Cyclin-dependent kinase 8 (Homo sapiens, UniProt P49336); test: Navigating the Kinome. Panel member name: CDK8; format: functional
[19] = biological target: Serine/threonine-protein kinase TAO1 (Homo sapiens, UniProt Q7L7X3); format: functional
[20] = biological target: Protein kinase C theta type (Homo sapiens, UniProt Q04759); test: Navigating the Kinome. Panel member name: PRKCQ; format: functional

Sequence of Mitogen-activated protein kinase kinase kinase kinase 4 (O95819 whole entry): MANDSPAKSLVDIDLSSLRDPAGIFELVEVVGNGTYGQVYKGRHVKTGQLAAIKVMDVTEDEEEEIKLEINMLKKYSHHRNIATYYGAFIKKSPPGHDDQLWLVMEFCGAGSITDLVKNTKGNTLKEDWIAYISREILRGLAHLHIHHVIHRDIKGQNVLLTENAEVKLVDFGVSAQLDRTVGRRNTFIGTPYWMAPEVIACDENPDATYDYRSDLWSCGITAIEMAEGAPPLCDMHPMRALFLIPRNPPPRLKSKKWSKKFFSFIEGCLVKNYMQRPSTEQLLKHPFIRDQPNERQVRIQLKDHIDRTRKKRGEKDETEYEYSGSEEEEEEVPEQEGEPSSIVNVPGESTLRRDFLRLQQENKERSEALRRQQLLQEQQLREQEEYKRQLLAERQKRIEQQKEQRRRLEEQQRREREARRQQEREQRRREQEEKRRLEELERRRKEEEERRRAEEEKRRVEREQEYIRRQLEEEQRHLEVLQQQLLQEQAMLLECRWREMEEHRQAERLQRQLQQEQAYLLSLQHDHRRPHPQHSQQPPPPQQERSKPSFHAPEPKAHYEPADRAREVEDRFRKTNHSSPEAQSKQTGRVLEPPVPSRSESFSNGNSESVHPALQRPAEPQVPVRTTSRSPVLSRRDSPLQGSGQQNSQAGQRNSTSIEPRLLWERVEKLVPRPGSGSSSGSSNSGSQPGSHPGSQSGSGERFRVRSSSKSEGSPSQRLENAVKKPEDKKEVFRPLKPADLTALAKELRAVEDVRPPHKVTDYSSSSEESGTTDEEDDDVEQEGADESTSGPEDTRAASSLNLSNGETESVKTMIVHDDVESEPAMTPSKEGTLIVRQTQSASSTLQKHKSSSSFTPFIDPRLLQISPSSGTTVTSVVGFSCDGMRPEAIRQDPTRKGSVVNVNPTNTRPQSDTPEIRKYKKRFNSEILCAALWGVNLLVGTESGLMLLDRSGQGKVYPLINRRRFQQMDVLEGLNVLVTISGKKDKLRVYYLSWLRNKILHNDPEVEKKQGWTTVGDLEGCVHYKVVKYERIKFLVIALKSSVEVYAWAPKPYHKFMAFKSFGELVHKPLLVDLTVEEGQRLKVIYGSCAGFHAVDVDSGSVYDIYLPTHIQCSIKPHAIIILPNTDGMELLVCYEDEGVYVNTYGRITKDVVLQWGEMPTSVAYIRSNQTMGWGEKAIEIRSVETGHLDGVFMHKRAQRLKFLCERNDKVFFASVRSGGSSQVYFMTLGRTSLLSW
Sequence of Platelet-derived growth factor receptor alpha (P16234 whole entry): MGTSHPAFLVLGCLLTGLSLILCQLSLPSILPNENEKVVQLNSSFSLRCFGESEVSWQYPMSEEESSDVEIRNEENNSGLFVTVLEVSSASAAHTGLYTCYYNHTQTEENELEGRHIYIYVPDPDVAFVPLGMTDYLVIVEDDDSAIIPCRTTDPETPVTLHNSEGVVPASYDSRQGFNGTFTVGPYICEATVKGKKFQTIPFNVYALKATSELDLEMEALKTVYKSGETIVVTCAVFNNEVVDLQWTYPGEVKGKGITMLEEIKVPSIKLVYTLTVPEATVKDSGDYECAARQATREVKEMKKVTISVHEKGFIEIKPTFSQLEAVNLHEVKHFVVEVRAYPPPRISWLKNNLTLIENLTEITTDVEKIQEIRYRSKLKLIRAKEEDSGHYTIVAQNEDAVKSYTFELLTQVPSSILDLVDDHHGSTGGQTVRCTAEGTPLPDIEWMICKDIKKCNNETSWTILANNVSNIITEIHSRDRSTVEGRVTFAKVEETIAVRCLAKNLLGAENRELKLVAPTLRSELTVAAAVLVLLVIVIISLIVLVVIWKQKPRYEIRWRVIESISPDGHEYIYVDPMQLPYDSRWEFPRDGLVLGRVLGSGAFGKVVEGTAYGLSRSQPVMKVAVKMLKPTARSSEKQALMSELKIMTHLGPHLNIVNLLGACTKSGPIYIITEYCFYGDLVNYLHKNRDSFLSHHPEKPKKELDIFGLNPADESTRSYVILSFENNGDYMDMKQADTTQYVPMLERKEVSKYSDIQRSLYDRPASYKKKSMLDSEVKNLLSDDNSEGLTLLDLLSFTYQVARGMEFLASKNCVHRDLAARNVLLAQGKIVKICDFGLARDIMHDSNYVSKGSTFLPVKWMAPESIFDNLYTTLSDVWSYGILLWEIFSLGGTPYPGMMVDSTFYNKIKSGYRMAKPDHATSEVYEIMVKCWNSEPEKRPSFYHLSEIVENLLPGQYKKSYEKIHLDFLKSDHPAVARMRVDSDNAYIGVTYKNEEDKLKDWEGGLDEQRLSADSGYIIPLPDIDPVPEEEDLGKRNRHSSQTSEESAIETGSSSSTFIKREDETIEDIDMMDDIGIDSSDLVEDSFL
Sequence of Serine/threonine-protein kinase Chk1 (O14757 whole entry): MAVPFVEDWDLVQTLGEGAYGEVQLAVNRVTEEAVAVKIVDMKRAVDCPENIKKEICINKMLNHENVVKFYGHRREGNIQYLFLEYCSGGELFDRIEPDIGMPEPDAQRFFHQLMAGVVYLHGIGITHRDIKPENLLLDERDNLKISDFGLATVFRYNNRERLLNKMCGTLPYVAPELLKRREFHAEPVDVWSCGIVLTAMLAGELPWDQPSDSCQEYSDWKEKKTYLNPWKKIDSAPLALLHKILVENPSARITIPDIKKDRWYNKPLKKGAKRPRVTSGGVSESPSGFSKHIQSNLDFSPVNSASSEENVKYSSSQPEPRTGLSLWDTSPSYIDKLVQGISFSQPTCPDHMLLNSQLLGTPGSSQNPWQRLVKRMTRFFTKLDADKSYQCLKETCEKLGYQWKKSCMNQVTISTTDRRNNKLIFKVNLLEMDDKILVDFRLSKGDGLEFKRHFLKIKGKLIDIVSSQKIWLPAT
Sequence of Activated CDC42 kinase 1 (Q07912 whole entry): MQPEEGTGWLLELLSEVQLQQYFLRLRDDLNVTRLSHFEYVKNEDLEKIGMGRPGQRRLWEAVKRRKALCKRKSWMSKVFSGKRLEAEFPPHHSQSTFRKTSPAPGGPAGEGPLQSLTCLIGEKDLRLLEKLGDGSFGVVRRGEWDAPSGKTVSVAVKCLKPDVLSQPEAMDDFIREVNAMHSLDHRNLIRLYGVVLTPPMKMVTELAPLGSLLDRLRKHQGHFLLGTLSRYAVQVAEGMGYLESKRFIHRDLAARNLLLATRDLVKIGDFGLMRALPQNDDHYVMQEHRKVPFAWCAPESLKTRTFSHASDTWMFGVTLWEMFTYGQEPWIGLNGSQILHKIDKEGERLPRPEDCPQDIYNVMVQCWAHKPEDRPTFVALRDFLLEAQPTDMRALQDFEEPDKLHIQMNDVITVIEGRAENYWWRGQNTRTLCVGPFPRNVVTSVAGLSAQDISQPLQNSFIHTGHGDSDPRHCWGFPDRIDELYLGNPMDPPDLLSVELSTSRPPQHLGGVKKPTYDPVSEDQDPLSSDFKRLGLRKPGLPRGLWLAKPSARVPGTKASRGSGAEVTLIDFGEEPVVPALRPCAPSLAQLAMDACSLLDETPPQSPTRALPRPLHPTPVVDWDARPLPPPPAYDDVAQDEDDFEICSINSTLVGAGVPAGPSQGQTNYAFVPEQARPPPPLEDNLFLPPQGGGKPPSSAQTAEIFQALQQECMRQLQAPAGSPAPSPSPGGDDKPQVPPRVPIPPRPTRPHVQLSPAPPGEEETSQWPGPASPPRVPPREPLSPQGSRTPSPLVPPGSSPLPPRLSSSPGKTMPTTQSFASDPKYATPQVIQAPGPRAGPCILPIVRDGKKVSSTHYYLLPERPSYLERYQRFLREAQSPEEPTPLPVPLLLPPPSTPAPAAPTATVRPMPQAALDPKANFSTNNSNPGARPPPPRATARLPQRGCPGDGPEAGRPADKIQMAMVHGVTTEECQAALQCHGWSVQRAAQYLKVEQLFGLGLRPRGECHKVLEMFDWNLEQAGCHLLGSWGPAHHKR
Sequence of Tyrosine-protein kinase Fyn (P06241 whole entry): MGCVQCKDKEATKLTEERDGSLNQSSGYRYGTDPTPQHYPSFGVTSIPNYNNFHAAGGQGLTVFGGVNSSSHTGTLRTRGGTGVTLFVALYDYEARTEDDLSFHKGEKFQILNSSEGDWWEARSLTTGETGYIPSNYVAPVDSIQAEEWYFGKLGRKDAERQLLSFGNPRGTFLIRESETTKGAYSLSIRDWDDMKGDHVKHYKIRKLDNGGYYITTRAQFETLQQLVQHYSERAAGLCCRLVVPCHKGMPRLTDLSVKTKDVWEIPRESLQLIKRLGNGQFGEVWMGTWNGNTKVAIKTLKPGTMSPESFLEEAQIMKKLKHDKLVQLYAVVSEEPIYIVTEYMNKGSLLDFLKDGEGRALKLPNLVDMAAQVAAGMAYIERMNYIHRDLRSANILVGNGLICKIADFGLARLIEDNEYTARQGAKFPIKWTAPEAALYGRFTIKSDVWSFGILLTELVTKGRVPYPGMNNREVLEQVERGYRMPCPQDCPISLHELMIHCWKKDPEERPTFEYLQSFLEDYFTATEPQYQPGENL
Sequence of Cyclin-dependent kinase 8 (P49336 whole entry): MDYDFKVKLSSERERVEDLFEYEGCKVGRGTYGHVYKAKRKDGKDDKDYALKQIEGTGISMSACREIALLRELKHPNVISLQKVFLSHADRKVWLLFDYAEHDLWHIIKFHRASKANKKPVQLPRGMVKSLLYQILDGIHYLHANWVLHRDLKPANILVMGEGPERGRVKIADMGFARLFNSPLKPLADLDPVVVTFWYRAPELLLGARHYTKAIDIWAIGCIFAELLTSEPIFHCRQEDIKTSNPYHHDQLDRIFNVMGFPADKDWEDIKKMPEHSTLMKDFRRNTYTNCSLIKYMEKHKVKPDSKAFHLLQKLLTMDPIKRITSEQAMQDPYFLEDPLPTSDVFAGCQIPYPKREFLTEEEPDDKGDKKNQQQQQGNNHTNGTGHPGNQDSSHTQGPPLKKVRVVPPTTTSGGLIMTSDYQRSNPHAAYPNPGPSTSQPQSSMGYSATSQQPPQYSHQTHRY

Compound: CCCNC(=O)c1c(N)n(CC2CCCO2)c2nc3ccccc3nc12 (configuration not stated)
- IC50 [1]: 3.35 µM (active)
- IC50 [2]: 2.01 µM (active)

Compound: O=C1/C(=C\c2cccc(O)c2O)SC(=S)N1Cc1ccccc1
- EC50 [3]: 2.77 µM (active)

Compound: CC(C)(C)c1cc[n+](C2=C([N-]S(=O)(=O)c3cccs3)C(=O)c3ccccc3C2=O)cc1
- EC50 [3]: 2.73 µM (active)
- IC50 [1]: 9.58 µM (active)
- IC50 [2]: 5.53 µM (active)
- AC50 (INS1): 2.04 µM (active)

- Ki [4]: 0.158 µM (active)
- Ki (Activin receptor type-1): 1.26 µM (active)
- Ki [5]: 2 µM (active)
- Ki [6]: 0.0794 µM (active)
- Ki [7]: 0.398 µM (active)
- Ki [8]: 0.794 µM (active)
- Ki [9]: 0.631 µM (active)
- Ki (Activated CDC42 kinase 1): > 3.98 µM (inactive)
- Ki [10]: 0.501 µM (active)
- Ki [11]: 0.631 µM (active)
- Ki [12]: 0.501 µM (active)
- Ki [13]: 0.0398 µM (active)
- Ki [14]: 2.51 µM (active)
- Ki [15]: 2.51 µM (active)
- Ki [16]: 5.01 µM (active)
- Ki [18]: 0.316 µM (active)
- Ki [19]: 3.98 µM (active)
- Ki [20]: 0.398 µM (active)
Compound: COc1c(-c2nc3ccccc3[nH]2)c(O)cc2oc(C)cc(=O)c12
- Ki [17]: 2.51 µM (active)

- Ki [4]: 39.8 µM (active)
- Ki (Activin receptor type-1): 50.1 µM (active)
- Ki [6]: 3.98 µM (active)
- Ki [7]: 20 µM (active)
- Ki [8]: 2.51 µM (active)
- Ki [9]: 79.4 µM (active)
- Ki [10]: 63.1 µM (active)
- Ki [11]: 31.6 µM (active)
- Ki [12]: 10 µM (active)
- Ki [14]: 25.1 µM (active)
- Ki [15]: 31.6 µM (active)
- Ki [16]: 12.6 µM (active)
- Ki [18]: 20 µM (active)
- Ki [19]: 100 µM (active)
- Ki [20]: > 100 µM (inactive)
Compound: COC(=O)c1c(N)nc2ccccn12
- Ki [17]: 50.1 µM (active)

Compound: CCc1ccc(S(=O)(=O)/N=C2\C=C(Nc3ccc(O)cc3)C(=O)c3ccccc32)cc1
- EC50 [3]: 1.86 µM (active)
- AC50 (INS1): 0.981 µM (active)

Compound: Cc1cc([N+](=O)[O-])cc(/C=N\NC(=O)C2COc3ccccc3O2)c1O (configuration not stated)
- EC50 [3]: 2.74 µM (active)
- IC50 [1]: 42.1 µM (active)
- IC50 [2]: 28.4 µM (active)

- Ki [5]: > 6.31 µM (inactive)
- Ki [9]: 0.0501 µM (active)
- Ki (Activated CDC42 kinase 1): > 3.98 µM (inactive)
- Ki [13]: > 3.16 µM (inactive)
- Ki [16]: > 5.01 µM (inactive)
Compound: Cc1ccc(F)c(NC(=O)Nc2ccc(-c3cccc4[nH]nc(N)c34)cc2)c1 [LINIFANIB]
